The test system of assay [1] is MDA-MB-231. Kind of assay: In vitro cytotoxicity MTT assay. The format is cell-based. The settings on record: Homo sapiens, 24 h treatment, mean ± SD of three experiments. The procedure:
(§1) Briefly, the cytotoxicity of the synthesized derivatives and the reference compounds was assessed via the MTT assay on four cancer cell lines. The cells were cultured in an RPMI11640 medium with 10% fetal bovine serum (FBS) and an antibiotic cocktail of […] streptomycin and 100 units/mL penicillin. Cancer cell lines were seeded independently in 96-well plates at a concentration of 1.0 × 10^4 cells/well at 37 °C, 5% CO2, and 100% relative humidity for 48 h. Afterwards, the incubated cells were treated with five concentrations of the synthesized derivatives for 24 h. Then, 20 µL MTT (5 mg/mL) was added and left for 4 h before adding 100 µL dimethyl sulfoxide (DMSO) to each well to solubilize the formed formazan.

Assay [2] relates to HeLa. Kind of assay: In vitro cytotoxicity MTT assay. Format: cell-based. The settings on record: Homo sapiens, 24 h treatment, mean ± SD of three experiments. The procedure: as §1
(In general: Tetrazolium dyes change colour on reduction, which living cells bring about.)

Assay [3] has as its system MCF-7. Kind of assay: In vitro cytotoxicity MTT assay. Format: cell-based. The settings on record: Homo sapiens, MCF7, 24 h treatment, mean ± SD of three experiments. The procedure:
as §1

Assay [4] concerns HepG2. Kind of assay: In vitro cytotoxicity MTT assay. The format is cell-based. The settings on record: Homo sapiens, 24 h treatment, mean ± SD of three experiments. The procedure:
as §1

In assay [5] the test system is HepG2, MCF-7, MDA-MB-231, and HeLa cell lines. Kind of assay: In vitro cytotoxicity MTT assay, all tested cell lines. The format is cell-based, human. The procedure:
as §1

Assay [6] concerns the target EGFR (Homo sapiens, UniProt P00533). Put plainly: Kinase inhibition assay (ELISA kit). In general terms: An ELISA detects its analyte on a solid surface through an enzyme-linked reagent.
Procedure: (§4) In vitro kinase inhibition assays were assessed against CDK2, EGFR, HER2, and VEGFR2, as described in [17, 27, 28]. […] Afterwards, the wells were washed. Then, 100 µL of the prepared biotin antibody was placed into each well and left for 1 h at room temperature. The wells were washed again before adding 100 µL of streptavidin solution and left for 45 min at room temperature. Then, 100 µL of TMB substrate reagent was added after a third washing step, and the plates were left for 30 min at room temperature. Finally, 50 µL of the stop solution was added to each well and the color intensity was measured at 450 nm.
For assay [7], the system named is BAX. Kind of assay: BAX level assay (ELISA) in HepG2. Format: cell-based, human. The settings on record: HepG2 cells, 24 h, vs untreated control. The procedure:
(§2) The effect of compound 5 was also evaluated on caspase 3, caspase 9, BAX, and Bcl-2 protein levels in HepG2 (Table 6). […] Additionally, the level of Bcl-2 was reduced in the treated cells (0.18-fold) compared to untreated control cells.
(§3) Compound 5 effect on Caspase 3, caspase 9, BAX, and Bcl-2 levels was analyzed by following the method described in [17]. In 96-well plates, HepG2 cells were cultured and incubated for 24 h. The cells were then treated with compound 5 or 0.1% DMSO (v/v) for 24 h. Afterwards, caspase 3 and 9, BAX, and Bcl-2 levels were determined using ELISA assay kits KHO1091 (InvitrogenTM, Grand Island, NY, USA), EIA-4860 (DRU International Inc., Mountainside, NJ, USA), EIA-4487 (DRU International Inc., Mountainside, NJ, USA), and 99-0042 (InvitrogenTM, Grand Island, NY, USA), respectively, according to the manufacturers’ procedures.

Assay [8] addresses VEGFR2 (Homo sapiens, UniProt P35968). Put plainly: Kinase inhibition assay (ELISA kit).
Procedure: as §4
Assay [9] has as its system Bcl-2. Put plainly: Bcl-2 level assay (ELISA) in HepG2. The format is cell-based, human. The settings on record: HepG2 cells, 24 h, vs untreated control. The procedure: as §2, §3
The test system of assay [10] is caspase 3. Put plainly: Caspase 3 level assay (ELISA) in HepG2. The settings on record: HepG2 cells, 24 h, vs untreated control. Format: cell-based, human. The procedure: as §2, §3
In assay [11] the test system is HepG2 cells. Kind of assay: Cell cycle analysis (propidium iodide flow cytometry). Format: cell-based, human. The settings on record: 6.11 μM, 24 h. The procedure:
Cell cycle analysis can determine at which phase in the cell cycle apoptosis occurs. The cell cycle is four phases consisting of G1 (growth), S (DNA synthesis), G2 (growth and preparation for mitosis), and M (mitosis). Normal cell growth and proliferation are controlled by various checkpoints at these phases. Thus, HepG2 cells were treated with 6.11 μM of compound 5 to determine at which phase apoptosis occurs in the cell cycle for 24 h (Figure 3 and Table 4).
Effect of compound 5 on cell cycle distribution was analyzed using following the method described in [17, 29]. Briefly, to determine the influence of compound 5 on the cell cycle progression of HepG2 cells, flow cytometry analysis was performed using Propidium Iodide flow cytometry kit/BD (ab139418). First, the cells were cultured at a density of 2 × 10^5/well and incubated for 24 h. Afterwards, the cells were treated with compound 5 for 24 h. Then, the cells were fixed using 70% ethanol for 12 h at 4 °C. The cells were then washed with cold PBS, incubated with 100 µL RNase A for 30 min at 37 °C, and stained with Propidium Iodide (400 µL) in the dark at room temperature for 30 min. The stained cells were identified by running Epics XLMCL™ flow cytometer equipment (Beckman Coulter, Apeldoorn, The Netherlands), and the results were interpreted using Flowing software (version 2.5.1, Turku Centre for Biotechnology, Turku, Finland).

In assay [12] the test system is HepG2 cells. Kind of assay: Apoptosis analysis (Annexin V-FITC/PI flow cytometry). Format: cell-based, human. The procedure:
Annexin V and propidium iodide (PI) reagent were used to detect the cell death in apoptosis by binding to phosphatidyl serine and DNA in plasma membrane, respectively. The cell death was examined by staining HepG2 cells with Annexin V and PI, and cellular fluorescence analysis was then performed using flow cytometry (Table 5). According to the results, compound 5 induced apoptosis by 160-fold in the late stage and by 20-fold in the early stage. […] As shown in the dot plot results, compound 5 caused exerted noticeable cell damage compared to untreated cells (Figure 4). Collectively, the results of cell cycle and apoptosis analysis confirmed the cytotoxicity effects of compound 5.
Effect of compound 5 on cell programmed cell death was analyzed using Annexin V-FITC cell apoptosis detection kit (K101-100) (BioVision Techology, Inc., Exon, PA, USA) by following the method described in [17, 30]. Briefly, in 6-well plates, HepG2 cells at a density of 2 × 10^5 were cultured and incubated for 24 h. The cultured cells were then treated with compound 5 for 24 h. Afterwards, the cells were trypsinized and gathered via centrifugation (5 min, 300× g), washed twice with PBS, and suspended in 0.1 mL of a 1X binding buffer. Then, the cells were double-stained with 5 µL Annexin V-FITC and 5 µL PI in the dark at room temperature for 15 min before they were examined using an Epics XL-MCL™ Flow Cytometer (Beckman Coulter, Apeldoorn, The Netherlands). The excitation wavelength was 488 nm while the emission wavelength was 530 nm. Finally, the data were analyzed using Flowing software (version 2.5.1, Turku Centre for Biotechnology, Turku, Finland).

Assay [13] addresses CDK2 (Homo sapiens, UniProt P24941). Put plainly: Kinase inhibition assay (ELISA kit).
Procedure: as §4
For assay [14], the system named is caspase 9. Put plainly: Caspase 9 level assay (ELISA) in HepG2. The format is cell-based, human. The settings on record: HepG2 cells, 24 h, vs untreated control. The procedure:
as §2, §3

Assay [15] deals with HER2 (Homo sapiens, UniProt P04626). Put plainly: Kinase inhibition assay (ELISA kit).
Chain of HER2 (P04626 23-1255): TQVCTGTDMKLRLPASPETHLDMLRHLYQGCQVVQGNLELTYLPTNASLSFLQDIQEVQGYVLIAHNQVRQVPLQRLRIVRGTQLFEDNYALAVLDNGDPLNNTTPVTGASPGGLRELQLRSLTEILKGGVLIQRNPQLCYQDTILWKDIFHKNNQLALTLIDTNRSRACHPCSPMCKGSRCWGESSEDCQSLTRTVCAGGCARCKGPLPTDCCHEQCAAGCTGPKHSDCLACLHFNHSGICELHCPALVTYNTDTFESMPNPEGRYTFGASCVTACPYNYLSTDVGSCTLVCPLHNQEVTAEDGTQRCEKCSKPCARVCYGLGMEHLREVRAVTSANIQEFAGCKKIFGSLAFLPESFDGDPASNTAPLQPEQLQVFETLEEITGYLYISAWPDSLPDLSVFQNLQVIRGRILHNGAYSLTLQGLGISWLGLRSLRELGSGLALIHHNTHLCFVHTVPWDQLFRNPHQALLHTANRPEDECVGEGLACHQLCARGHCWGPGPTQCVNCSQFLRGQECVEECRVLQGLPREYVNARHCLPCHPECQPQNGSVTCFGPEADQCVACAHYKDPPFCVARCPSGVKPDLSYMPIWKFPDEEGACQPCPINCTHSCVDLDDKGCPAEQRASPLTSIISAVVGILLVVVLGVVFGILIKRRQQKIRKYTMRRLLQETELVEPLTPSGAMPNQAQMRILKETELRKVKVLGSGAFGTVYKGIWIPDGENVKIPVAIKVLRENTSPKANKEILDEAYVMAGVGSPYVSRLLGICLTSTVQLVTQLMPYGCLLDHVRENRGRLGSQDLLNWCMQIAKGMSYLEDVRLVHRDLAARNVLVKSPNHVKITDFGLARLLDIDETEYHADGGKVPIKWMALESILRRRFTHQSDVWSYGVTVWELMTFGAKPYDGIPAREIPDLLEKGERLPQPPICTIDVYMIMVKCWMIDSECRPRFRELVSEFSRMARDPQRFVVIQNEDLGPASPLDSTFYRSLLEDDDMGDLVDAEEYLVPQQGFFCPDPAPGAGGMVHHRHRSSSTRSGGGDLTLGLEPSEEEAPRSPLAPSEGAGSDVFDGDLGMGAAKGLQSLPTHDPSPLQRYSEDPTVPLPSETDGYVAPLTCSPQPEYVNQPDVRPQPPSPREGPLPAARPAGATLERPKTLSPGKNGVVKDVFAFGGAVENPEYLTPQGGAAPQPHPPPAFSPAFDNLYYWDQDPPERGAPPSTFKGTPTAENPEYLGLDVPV
Procedure: as §4

These results are taken from paper PMC10420662, “Novel 7-Deazapurine Incorporating Isatin Hybrid Compounds as Protein Kinase Inhibitors: Design, Synthesis, In Silico Studies, and Antiproliferative Evaluation” (Molecules, 2023).

Chain of VEGFR2 (P35968 20-1356): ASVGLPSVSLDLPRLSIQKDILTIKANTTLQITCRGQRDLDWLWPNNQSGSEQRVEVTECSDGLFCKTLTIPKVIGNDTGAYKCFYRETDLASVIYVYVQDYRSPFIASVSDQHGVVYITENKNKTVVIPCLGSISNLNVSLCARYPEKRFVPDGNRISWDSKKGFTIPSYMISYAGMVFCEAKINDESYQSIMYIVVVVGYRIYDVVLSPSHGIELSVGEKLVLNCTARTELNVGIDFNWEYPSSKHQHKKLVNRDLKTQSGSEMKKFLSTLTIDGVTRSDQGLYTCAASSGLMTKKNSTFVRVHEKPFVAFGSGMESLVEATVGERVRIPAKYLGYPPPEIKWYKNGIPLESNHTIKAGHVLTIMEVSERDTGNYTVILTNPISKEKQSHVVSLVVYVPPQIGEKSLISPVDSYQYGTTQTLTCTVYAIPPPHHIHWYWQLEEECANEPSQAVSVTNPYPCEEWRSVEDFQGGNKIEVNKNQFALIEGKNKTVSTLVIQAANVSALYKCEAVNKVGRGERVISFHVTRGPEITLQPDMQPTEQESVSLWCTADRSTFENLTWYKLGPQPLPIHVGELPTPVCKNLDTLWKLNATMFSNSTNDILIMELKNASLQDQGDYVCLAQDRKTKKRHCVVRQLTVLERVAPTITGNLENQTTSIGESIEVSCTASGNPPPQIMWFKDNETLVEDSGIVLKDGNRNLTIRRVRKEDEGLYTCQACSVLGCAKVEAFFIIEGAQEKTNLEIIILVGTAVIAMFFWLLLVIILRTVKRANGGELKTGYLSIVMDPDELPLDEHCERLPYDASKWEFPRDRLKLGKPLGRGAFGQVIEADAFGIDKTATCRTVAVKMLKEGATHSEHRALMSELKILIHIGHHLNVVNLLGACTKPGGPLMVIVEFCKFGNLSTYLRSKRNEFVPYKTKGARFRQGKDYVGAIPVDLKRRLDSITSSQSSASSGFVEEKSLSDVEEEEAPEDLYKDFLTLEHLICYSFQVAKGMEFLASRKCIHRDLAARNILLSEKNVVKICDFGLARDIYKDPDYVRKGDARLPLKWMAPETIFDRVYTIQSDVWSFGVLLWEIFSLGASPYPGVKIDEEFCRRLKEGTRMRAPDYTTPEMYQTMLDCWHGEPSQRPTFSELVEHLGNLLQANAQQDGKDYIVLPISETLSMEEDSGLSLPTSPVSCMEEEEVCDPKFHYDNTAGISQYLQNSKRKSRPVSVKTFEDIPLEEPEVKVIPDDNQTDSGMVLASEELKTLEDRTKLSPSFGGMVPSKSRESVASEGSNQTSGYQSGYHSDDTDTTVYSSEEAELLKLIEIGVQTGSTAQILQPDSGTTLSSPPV
Chain of EGFR (P00533 25-1210): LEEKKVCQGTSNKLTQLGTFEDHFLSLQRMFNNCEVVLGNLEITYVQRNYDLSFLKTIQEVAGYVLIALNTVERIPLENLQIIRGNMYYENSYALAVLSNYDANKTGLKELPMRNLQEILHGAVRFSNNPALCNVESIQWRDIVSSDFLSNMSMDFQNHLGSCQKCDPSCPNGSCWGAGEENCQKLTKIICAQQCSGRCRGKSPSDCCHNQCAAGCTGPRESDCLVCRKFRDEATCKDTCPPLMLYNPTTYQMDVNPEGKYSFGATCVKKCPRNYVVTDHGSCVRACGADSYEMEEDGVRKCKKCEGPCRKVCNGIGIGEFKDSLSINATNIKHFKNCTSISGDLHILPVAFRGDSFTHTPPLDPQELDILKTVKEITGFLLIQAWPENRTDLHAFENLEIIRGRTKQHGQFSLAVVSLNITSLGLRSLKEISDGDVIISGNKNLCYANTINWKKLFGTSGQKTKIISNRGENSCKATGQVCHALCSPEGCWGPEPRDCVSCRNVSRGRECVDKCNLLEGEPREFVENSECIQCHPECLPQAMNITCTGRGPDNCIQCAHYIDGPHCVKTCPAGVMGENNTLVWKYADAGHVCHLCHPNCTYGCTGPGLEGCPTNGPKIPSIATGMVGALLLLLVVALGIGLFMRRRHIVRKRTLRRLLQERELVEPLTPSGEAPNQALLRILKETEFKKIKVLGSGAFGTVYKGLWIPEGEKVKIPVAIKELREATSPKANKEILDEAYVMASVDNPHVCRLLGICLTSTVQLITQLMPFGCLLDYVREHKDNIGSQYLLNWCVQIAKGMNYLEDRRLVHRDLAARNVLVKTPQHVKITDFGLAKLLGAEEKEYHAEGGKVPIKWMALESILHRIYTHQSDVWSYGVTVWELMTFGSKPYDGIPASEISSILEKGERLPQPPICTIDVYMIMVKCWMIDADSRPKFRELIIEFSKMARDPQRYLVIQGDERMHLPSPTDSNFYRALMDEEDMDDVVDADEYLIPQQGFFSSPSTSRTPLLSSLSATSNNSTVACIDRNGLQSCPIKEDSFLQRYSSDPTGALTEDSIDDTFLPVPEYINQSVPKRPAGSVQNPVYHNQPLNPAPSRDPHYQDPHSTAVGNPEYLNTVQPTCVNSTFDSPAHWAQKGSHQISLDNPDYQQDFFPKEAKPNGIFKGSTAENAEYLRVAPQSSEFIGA

In the case of `O=C1Nc2ccccc2C1=NNC(=O)c1ccc(Nc2ncnc3[nH]ccc23)cc1` [Compound 1, 4-((7H-pyrrolo[2,3-d]pyrimidin-4-yl)amino)-N′-(2-oxoindolin-3-ylidene)benzohydrazide], the IC50 came to 16 ± 1.3 µM in [1], 12.4 ± 0.9 µM in [2], 18.5 ± 1.5 µM in [3] and 25.8 ± 1.9 µM in [4]. The “Antiproliferative activity (in words)” value in assay [5] is given as “moderate antiproliferative activity”.

For the compound `O=C1Nc2ccc(Cl)cc2C1=NNC(=O)c1ccc(Nc2ncnc3[nH]ccc23)cc1` [Compound 2, 4-((7H-pyrrolo[2,3-d]pyrimidin-4-yl)amino)-N′-(5-chloro-2-oxoindolin-3-ylidene)benzohydrazide], the IC50 in assay [1] is 51.3 ± 2.9 µM; in assay [2], 45.4 ± 2.6 µM; in [3], 72.5 ± 3.7 µM; in [4], 67.4 ± 3.6 µM.

As for `O=C1Nc2ccc(F)cc2C1=NNC(=O)c1ccc(Nc2ncnc3[nH]ccc23)cc1` [Compound 3, 4-((7H-pyrrolo[2,3-d]pyrimidin-4-yl)amino)-N′-(5-fluoro-2-oxoindolin-3-ylidene)benzohydrazide], the IC50 in assay [1] turned out to be 42.9 ± 2.6 µM; in assay [2], 39.1 ± 2.4 µM; in assay [3], 63.7 ± 3.4 µM; in assay [4], 59.3 ± 3.3 µM.

Consider `Cc1ccc2c(c1)C(=NNC(=O)c1ccc(Nc3ncnc4[nH]ccc34)cc1)C(=O)N2` [Compound 4, 4-((7H-pyrrolo[2,3-d]pyrimidin-4-yl)amino)-N′-(5-methyl-2-oxoindolin-3-ylidene)benzohydrazide], for which the IC50 stood at 73.2 ± 3.3 µM in [1], 75.4 ± 3.5 µM in assay [2], 80.2 ± 4.2 µM in [3] and 92.7 ± 4.5 µM in assay [4].

For `COc1ccc2c(c1)C(=NNC(=O)c1ccc(Nc3ncnc4[nH]ccc34)cc1)C(=O)N2` [Compound 5, 4-((7H-pyrrolo[2,3-d]pyrimidin-4-yl)amino)-N′-(5-methoxy-2-oxoindolin-3-ylidene)benzohydrazide], the IC50 in [6] worked out at 0.103 ± 0.006 µM; in [1], 2.48 ± 0.1 µM; in assay [2], 1.98 ± 0.1 µM; in assay [3], 5.93 ± 0.3 µM; in assay [4] it was 6.11 ± 0.4 µM; in assay [8], 0.178 ± 0.009 µM. For the same compound, the figures for the 50% inhibitory concentration (IC50) in assay [13] and in assay [15] were 0.131 ± 0.007 µM and 0.081 ± 0.002 µM, respectively. Besides, the “Gene Expression Fold Change Bax” value came to 6.13 fold in assay [7] and 6 fold in [7] (listed as compound 5). Moreover, the “Gene Expression Fold Change Bcl-2” value in assay [9] was 0.184 fold; in assay [9] (listed as compound 5), 0.18 fold. In addition, the “Gene Expression Fold Change Caspase 3” value amounted to 7.984 fold in [10] and 8 fold in [10] (listed as compound 5). The “Cell Cycle Distribution %G0-G1” value in assay [11] was determined as 49.02%. Also, in assay [11], the “Cell Cycle Distribution %G2/M” value was found to be 6.05%. Further, in [11], the “Cell Cycle Distribution %Pre-G1” value is 39.72%. Moreover, in assay [11], the “Cell Cycle Distribution %S” value was 44.93%. The “Cell cycle arrest phase” value in assay [11] is “arrested the cell cycle of HepG2 cells at G1 and S phases”. Besides, the “Apoptosis Early” value in [12] (24 h, Annexin V-FITC/PI) was determined as 13.28%. Besides, in [12] (24 h, Annexin V-FITC/PI), the “Apoptosis Late” value is reported as 21.16%. In assay [12] (24 h, Annexin V-FITC/PI), the Necrosis was determined as 5.28%. Moreover, the “Increase in necrotic cell death” value in assay [12] (compared to untreated cells) is 4.75 fold. For the same compound, the “Induction of apoptosis in the early stage” value in [12] (compared to untreated cells) came out at 20 fold. Besides, the “Induction of apoptosis in the late stage” value in assay [12] (compared to untreated cells) was 160 fold. For the same compound, the “Gene Expression Fold Change Caspase 9” value in [14] is listed as 4.853 fold; in assay [14] (listed as compound 5), 5 fold.

As to `COc1cccc2c1C(=O)c1c(O)c3c(c(O)c1C2=O)C[C@@](O)(C(=O)CO)C[C@@H]3O[C@H]1C[C@H](N)[C@H](O)[C@H](C)O1` [DOXORUBICIN, doxorubicin, reference compound], 4.5 ± 0.2 µM corresponded to half-maximal inhibition in assay [4] (IC50).

For the compound `CCN(CC)CCNC(=O)c1c(C)[nH]c(/C=C2\C(=O)Nc3ccc(F)cc32)c1C` [Sunitinib, reference compound], the IC50 in assay [1] is 8.41 ± 0.7 µM; in assay [2] it was 7.48 ± 0.6 µM; in assay [3] it was 5.19 ± 0.4 µM; in assay [4] it was 6.82 ± 0.5 µM.

As usually defined, the IC50 is the concentration at which inhibition is half-maximal. A lower IC50 goes with higher potency.
